Measurements as given in BindingDB's records for doi:10.1021/acschembio.5b00817 (University of Leipzig, 2015).

Legend:
[1] = target: T1, Signal transducer and activator of transcription 5A (Homo sapiens, UniProt P42229); assay: Fluorescence Polarization Assay
T1 sequence (P42229 whole entry): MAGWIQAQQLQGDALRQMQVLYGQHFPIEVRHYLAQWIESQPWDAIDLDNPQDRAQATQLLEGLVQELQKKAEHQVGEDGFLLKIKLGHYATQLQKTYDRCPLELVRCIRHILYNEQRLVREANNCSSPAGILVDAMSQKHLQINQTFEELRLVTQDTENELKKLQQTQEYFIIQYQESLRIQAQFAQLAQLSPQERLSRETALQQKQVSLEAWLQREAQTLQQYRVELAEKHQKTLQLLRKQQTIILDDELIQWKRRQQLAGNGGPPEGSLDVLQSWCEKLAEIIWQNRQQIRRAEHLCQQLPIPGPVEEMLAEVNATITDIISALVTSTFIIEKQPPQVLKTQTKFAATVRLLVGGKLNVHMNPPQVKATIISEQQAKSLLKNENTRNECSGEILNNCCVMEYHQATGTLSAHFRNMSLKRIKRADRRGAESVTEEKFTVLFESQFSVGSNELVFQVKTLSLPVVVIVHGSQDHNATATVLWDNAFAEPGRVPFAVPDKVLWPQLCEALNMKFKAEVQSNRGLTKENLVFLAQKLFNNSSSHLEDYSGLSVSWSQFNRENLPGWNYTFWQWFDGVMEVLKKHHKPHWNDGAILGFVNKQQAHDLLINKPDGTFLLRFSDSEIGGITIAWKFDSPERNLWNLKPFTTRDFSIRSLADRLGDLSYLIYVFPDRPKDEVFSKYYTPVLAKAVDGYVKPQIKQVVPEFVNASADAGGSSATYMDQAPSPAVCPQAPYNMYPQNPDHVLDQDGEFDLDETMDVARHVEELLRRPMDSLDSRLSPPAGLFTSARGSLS
Experimental: (§1) For competition-based fluorescence polarization assays, the ability of the test compounds to displace fluorophore-labeled peptides from their respective binding proteins was analyzed as previously described.3 Peptide sequences were: STAT1: 5-carboxyfluorescein-GY(PO3H2)DKPHVL; STAT3: 5-carboxyfluorescein-GY(PO3H2)LPQTV-NH2; STAT4: 5-carboxyfluorescein-GY(PO3H2)LPQNID-OH; STAT5a and STAT5b: 5-carboxyfluorescein-GY(PO3H2)LVLDKW; STAT6: 5-carboxyfluorescein-GY(PO3H2)VPWQDLI-OH; Lck SH2: 5-carboxyfluorescein-GY(PO3H2)EEIP. Due to protein instability, STAT2 was not analyzed. Final concentration of 5-carboxyfluorescein-labeled peptides: 10 nM. […] Pipetting was carried out partly using a Biomek FX workstation (Beckman-Coulter). Pr

[2] = target: T2, Signal transducer and activator of transcription 5B (Homo sapiens, UniProt P51692); assay: Fluorescence Polarization Assay
T2 sequence (P51692 whole entry): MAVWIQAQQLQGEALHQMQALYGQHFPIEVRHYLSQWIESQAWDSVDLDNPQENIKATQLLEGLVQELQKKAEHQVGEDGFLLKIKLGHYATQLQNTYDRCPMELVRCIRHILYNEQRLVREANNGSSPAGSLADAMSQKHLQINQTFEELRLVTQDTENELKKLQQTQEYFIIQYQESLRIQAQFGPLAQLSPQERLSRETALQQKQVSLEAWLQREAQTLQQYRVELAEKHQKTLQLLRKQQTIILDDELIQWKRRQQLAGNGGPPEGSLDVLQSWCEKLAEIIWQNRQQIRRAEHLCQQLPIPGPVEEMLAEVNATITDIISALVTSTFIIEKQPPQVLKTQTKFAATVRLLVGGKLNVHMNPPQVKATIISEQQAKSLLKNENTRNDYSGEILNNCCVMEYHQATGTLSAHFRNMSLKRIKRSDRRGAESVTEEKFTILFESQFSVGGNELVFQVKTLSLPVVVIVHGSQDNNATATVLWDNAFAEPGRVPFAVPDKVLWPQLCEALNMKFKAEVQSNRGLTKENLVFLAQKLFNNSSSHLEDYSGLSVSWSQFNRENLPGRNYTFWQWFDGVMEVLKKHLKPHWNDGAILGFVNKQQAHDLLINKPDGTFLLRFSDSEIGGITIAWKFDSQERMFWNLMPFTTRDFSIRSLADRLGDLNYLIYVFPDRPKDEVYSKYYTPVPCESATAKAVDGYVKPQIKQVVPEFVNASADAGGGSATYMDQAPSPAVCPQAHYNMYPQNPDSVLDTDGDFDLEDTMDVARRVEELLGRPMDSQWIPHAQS
Experimental: as §1

SMILES	IC50 [1] [µM]	Ki [1] [µM]	IC50 [2] [µM]	Ki [2] [µM]
COc1cc(CNC(=O)CCCCCCC(C)C)ccc1OP(=O)(O)O [2-Methoxy-4-((8-methylnonanamido)methyl)phenyl dihydrogen phosphate (3a)]	152	75	–	–
CCCCCCCCC(=O)NCc1ccc(OP(=O)(O)O)c(OC)c1 [2-Methoxy-4-(nonanamidomethyl)phenyl dihydrogen phosphate (3b)]	98	49	196	96
CC(C)CCCCCCC(=O)NCc1ccc(OP(=O)(O)O)c(OP(=O)(O)O)c1 [4-((8-Methylnonanamido)methyl)-1,2-phenylene bis(dihydrogen phosphate) (6a)]	26.4	13	0.75	0.34
CCCCCCCCC(=O)NCc1ccc(OP(=O)(O)O)c(OP(=O)(O)O)c1 [4-(Nonanamidomethyl)-1,2-phenylene bis(dihydrogen phosphate) (6b)]	24.9	12.3	0.86	0.39
